Measurements from a melting point compilation (Tetko et al.; mined from patent text by program, amines drawn as free bases though some values may be those of a salt).

melting point [°C]	Structure (SMILES)
195 to 197	Cc1ccc(S(=O)(=O)OCC2(CO)OC(n3ccc(=O)[nH]c3=O)C(O)C2OCc2ccccc2)cc1 (configuration not stated)
86 to 88	Cc1cccc(CC(Cc2cccc(C)c2)C(=O)O)c1
276 to 278	Cc1c(O)cc(OC(=O)Cc2ccc(CC(=O)Oc3cc(O)c(C)c(O)c3)cc2)cc1O
201 to 202	CCCS(=O)(=O)c1ccc(NS(=O)(=O)c2cccs2)c2[nH]c(C(=O)OCC)cc12
180 to 182	CCCOc1ccc(S(=O)(=O)N2CCN(CC)CC2)cc1-c1nc2cc3ncn(Cc4ccccc4OC)c3cc2c(=O)[nH]1
140 to 142	CC(=O)c1cc(N2CCOCC2)ccc1NC(=O)c1cccc(OCc2ccccc2)c1
86	CN1CCC(Cn2sc3cc(Cl)ccc3c2=O)CC1
193 to 194	COc1ccc(CCOc2ccnc(-c3cccc(C(=O)O)c3)n2)cc1OC
148 to 149	Fc1ccc2c(CN3CCN(CCc4ccccc4)CC3)n[nH]c2c1
94 to 97	OCCNC(c1ccccc1)(c1ccccc1)c1ccccc1
65 to 68	COc1cccc(F)c1-c1ccc(NC(=O)OC(C)(C)C)c([N+](=O)[O-])c1
192 to 194	Oc1c(Br)cc(F)cc1Cc1cc(Cl)cc(Cc2cc(F)cc(Br)c2O)c1O
140 to 142	CN(CCNC(=O)c1nc(Cl)c(N)nc1N)CCC(=O)NCCN
116 to 118	N=C(Nc1ccc(CCNCc2ccccc2)cc1)c1cccs1
263	Cn1c(=O)c(C#N)c(N2CCN(C(=O)c3ccco3)CC2)c2cc(F)ccc21
203 to 204	CS(=O)(=O)Nc1cc2occc(=O)c2cc1Oc1ccccc1NC=O
158	O=[N+]([O-])c1ccc(Oc2ccccc2-c2ccccc2Oc2ccc([N+](=O)[O-])cc2)cc1
196 to 198	COc1cc(N2CCCC2)ncc1NC(=O)c1cc2cc(F)ccc2n1Cc1cccc(F)c1
184 to 186	CCc1nc(OC)c(NC(=O)N2CCN(c3cc(F)cc(F)c3)CC2)cc1C(=O)Nc1cc(CO)cc(Nc2c3ccccc3nc3ccccc23)c1
77 to 83	O=c1oc2c(c(O)c1C(c1ccccc1)C1CC1)CCCCC2CC1CC1 (configuration not stated)
91 to 94	O=c1cc(Br)ccn1C1CC1
217 to 218	Cc1c[nH]c(-c2cnn(-c3c(Cl)cc(C(F)(F)F)cc3Cl)n2)n1
187	COc1ccc(-c2ccnc(-c3cn(C)c(=O)n3-c3ccc(C(C)(C)C#N)cc3)c2)cn1

melting point [°C]	Structure (SMILES)
223 to 224	CC(C)(Cc1ccccc1)C(NC(=O)c1ccc(Cl)cc1)Nc1c(Nc2cccnc2)c(=O)c1=O (configuration not stated)
126 to 128	O=C(Cl)c1ncn(Cc2ccc(Cl)c(Cl)c2)c1C(=O)Cl
152	COc1cc(-c2nc3ccc(OCCN(C)C)cc3n2Cc2ccccc2Br)cc(OC)c1OC
190 to 193	O=C(Oc1cccc2cnccc12)c1cc2ccccc2oc1=O
84 to 84.5	CC(C)C[C@@H]1OC(O)[C@H](Cc2ccccc2)NC1=O (some centres not stated)
90 to 91	COc1cc(C=C(Cl)Cl)nc(N)n1
290	Cc1cc(-c2ccc(C(F)(F)F)cc2)cn2c(-c3nc(-c4ccc(S(N)(=O)=O)cc4)no3)cnc12
160 to 162	O=C(O)/C=C/C(=O)/C=C/c1ccc(F)cc1
170 to 172	COc1ccc(F)cc1C(C)(C)CC(O)(Cn1ccc(=O)c2ccccc21)C(F)(F)F (configuration not stated)
149 to 150	O=c1c2cccnc2c(-c2cccc(Cl)c2)cn1Cc1ccccc1
228	Cc1c(Cl)cccc1S(=O)(=O)Nc1ccc2ncccc2c1
190 to 192	O=C(O)c1cc([N+](=O)[O-])ccc1NCc1ccco1
192 to 195	O=S1CCON=C1c1nc2ccccc2s1 (configuration not stated)
158 to 159	NC(=O)COc1ccc(CCNS(=O)(=O)c2ccc(Cl)cc2)cc1
211 to 213	O=c1[nH]c2ccccc2c(=O)n1S(=O)(=O)c1ccccc1
> 200	O=S1(=O)CCN(CC#Cc2cnc3c(c2)N(Cc2cc(Cl)ccc2Cl)CCN3)CC1
48 to 50	CN(Cc1ccccc1)Cc1ccc(N)cc1
97	CCC1SC(=O)NN=C1c1ccc(OC(F)F)c(OC)c1 (configuration not stated)
121 to 123	CS(=O)(=O)c1ccc(-c2cnn(CC(F)(F)F)c(=O)c2OCc2ccccc2)cc1
115	CC(C)(C)C(=O)Nc1cc(OCc2ccccc2)c(OCc2ccccc2)cc1N
197 to 199	COc1cc(Nc2c(C#N)cnc3sccc23)c(Cl)cc1Cl
120 to 122	COc1ccc(Br)c(CC(C#N)C(=O)O)c1OC (configuration not stated)
180 to 181	COc1cc(OC)cc(C(=O)N2CCc3cc(OCc4ccccc4)c(OC)cc3C2=O)c1

melting point [°C]	Structure (SMILES)
98.3	OCc1ccc(OCCCCCSc2ccnc3cc(C(F)(F)F)ccc23)cc1
170	CCOC(OCC)P(=O)(O)CCCN(C)Cc1ccc(Cl)cc1
98	Cc1ccc(NCCCCOc2ccc3ccccc3c2)cc1
146 to 149	COP(=O)(COC1C=CC(n2cnc3c(N)ncnc32)O1)OC (configuration not stated)
132 to 134	COc1cc2c(cc1OC)OCCC(C(=O)N1CCN(C(=O)c3cc(OC)c(OC)c(OC)c3)CC1)=C2
132 to 133	CCC(CC)CC(=O)C1=C(O)c2cc(OC)c(OC)c(OC)c2C(O)(c2ccc(OC)c(OC)c2)C1C(=O)OC (configuration not stated)
85 to 86.5	O=C(CCCCCl)c1ccc2c(c1)Cc1cc(C(=O)CCCCCl)ccc1S2
140	O=C(Nc1cccc2[nH]ccc12)c1ccccc1OCCCCl
188 to 190	CCc1cccc2c3c([nH]c12)C(CC)(CC(=O)OC)OCC3=NO (configuration not stated)
205 to 207	O=C(NCC(F)(F)F)c1cccc(CN2CCN(c3ccc(NC(=O)c4ccccc4-c4ccc(C(F)(F)F)cc4)cc3)CC2)c1
126 to 128	Cc1ccccc1N1CCc2c(C)nc3c(C)cccc3c21
188 to 190	COc1cc(C(=O)N2CCN(C(=O)OC(C)(C)C)C(C(=O)O)C2)cc(OC)c1OC (configuration not stated)
> 260	NC(=O)c1cc(F)c(-n2ncc(Cl)c(Cl)c2=O)cc1F
148 to 150	COc1ccc(/C=C/S(=O)(=O)CS(=O)(=O)/C=C/c2ccc(OC)c(O)c2)cc1O
96 to 99	CC(C)(O)C(=O)c1ccc(Oc2ccc(C(=O)C(C)(C)O)cc2)cc1
156 to 158	CCOCCc1c(O)n2c3c(=O)n(C)c(=O)n(C)c3nc2n(Cc2ccccc2)c1=O
64 to 66	CCNC(=O)c1ccccc1[Si](C)(C)C
152 to 153	CCOC(=O)Cc1oc(-n2cnc3ccccc32)nc1-c1ccc(Cl)cc1
114 to 115	CCOC(=O)c1sc(SC)c(C(=O)CC)c1C
148 to 149	O=C(CNS(=O)(=O)c1ccccc1)c1ccc(OCc2ccccc2)cc1
234 to 236	CNS(=O)(=O)c1ccc(-c2cc(N3CCOCC3)cc(Nc3ccc(OC(F)(F)F)cc3)n2)cc1
68 to 69	Brc1cnc(SCc2ccccc2)nc1
169 to 172	CCCCc1oc2ccccc2c1C(=O)NCc1ccc2c(-c3ccc(Cl)cc3)c(OC(Cc3ccccc3)C(=O)O)ccc2c1 (configuration not stated)

melting point [°C]	Structure (SMILES)
264 to 265	Cc1cc(-c2csc(-c3ccc(C(=O)O)cc3)n2)c(C)o1
115 to 116	CCCCc1ncc(CO)n1Cc1ccc(OCc2ccccc2C(=O)O)cc1
163 to 164	CC(=O)Nc1c(C#N)cnn1-c1c(Cl)cc(Cl)cc1Cl
154 to 155	CCn1ncc2c(O)c3c(nc21)CCc1ccccc1C3=O
61 to 63	COC(=O)c1cc(N(C)C)c(N(C)C)c(N(C)C)c1
231 to 234	CC(C)(CO)Nc1nc(SCc2cccc(F)c2F)nc2nc(N)sc12
55 to 56	Cc1c(C)c2c(c(C)c1OCc1ccccc1)CC[C@@](C)(CCO)O2
166 to 168	Cn1cc(-c2ccc(Cl)c(C(F)(F)F)c2)c(=O)c(-c2cccs2)c1
60.5 to 61.5	Nc1c(Br)cc(OC(F)F)cc1[N+](=O)[O-]
232 to 235	Cc1cnc2c(c1)C(=O)CC(C)(C)C2
256 to 258	CC(C)(O)Cn1c(CO)nc2c(N)nc3cc(-c4ccc(F)c(F)c4)cnc3c21
158 to 159	CC(OC(=O)C1N2C(=O)C(NC(=O)Cc3ccccc3)C2S(=O)C1(C)C)C1CC1 (configuration not stated)
248 to 250	COc1cc(C(=O)NS(=O)(=O)c2ccccc2C)ccc1Cc1c[nH]c2ccc(NC(=O)CC3CCCC3)cc12
153 to 155	O=C(O)c1cc(-c2nccs2)[nH]c1C(CC1CCOCC1)c1ccc(S(=O)(=O)C2CC2)cc1 (configuration not stated)
59 to 60	CCOC(=O)C1=C(C)NC(C(OCC)OCC)=C(C(=O)OCC)C1c1ccco1 (configuration not stated)
211 to 213	CCOC(=O)c1nn(-c2ccc(NC)cc2)c(=O)c2c(N)scc12
170 to 172	CCCc1c(O)c(O)c(C(=O)O)c2cc(C)c(C)cc12
205 to 207	CC(CO)C1CCC2C3CC=C4CC(O)CC(O)C4(C)C3CCC12C (configuration not stated)
139 to 141	O=[N+]([O-])c1cn(-c2cccnc2)nc1F
68 to 69	CCCCCCCCCCCCc1c[nH]c(C(=O)OC)c1
169 to 172	O=C(Nc1ccc(Cl)cc1)NS(=O)(=O)c1ccc2c(c1)CCC2
255 to 256	CCc1[nH]c(=O)[nH]c(=O)c1N1CCN(Cc2ccccc2)CC1

Structure (SMILES)	melting point [°C]
CCOC(=O)Cc1nc(C)n2c1CN=C(c1ccccc1Cl)c1cc(Cl)ccc1-2	143 to 154
O=C1CCN(C(=O)c2ccc3nonc3c2)CC1	136 to 139
CCc1c(N)c(Cl)cc(Cc2cc(Cl)c(N)c(CC)c2Cl)c1Cl	146 to 148
CCCCc1c2c(nc3cc(F)ccc13)-c1cc3c(c(=O)n1C2)COC(=O)CC3(O)CC (configuration not stated)	235 to 236
CN(C)C(=O)C1N=C(c2ccccc2)c2cc(Cl)ccc2NC1=O (configuration not stated)	297
CNC(=O)ON(Cc1ccc(OCc2ccccc2)cc1)C(C)=O	101 to 102
